# Entries after “also recorded” stand apart in the source; their conditions may differ.
# How the values were obtained:
# [1] = test system: endothelial cells; experiment: Matrigel assay, endothelial cell migration in vivo (FACS); parameters: species or system C57bl mice; conditions: for endothelial cells among matrigel liberated cells (FACS, CD31): Matrigel s.c. with 500 ng VEGF, with or without 180 μg #237, day 6
# Description: On day 6, animals were sacrificed and fluorescence-activated cell sorting (FACS) analysis was used for determination of the matrigel liberated cells. In order to distinguish the endothelial cells from hematopoietic cells, the cells were incubated with two antibodies CD31-PE and CD45-APC which are specific to endothelial cells and hematopoietic cells respectively.
# [2] = test system: endothelial cells; experiment: I125-VEGF binding to endothelial cells in presence of peptide; type: cell-based; conditions: for VEGF binding to cells (endothelial cells) with #237 fragments: 100 μg/ml of each peptide
# Description: (§1) 10000 cells were incubated in binding buffer containing 20 mM Hepes, 0.1% BSA and I125-VEGF (12 ng/ml) for 3 h on ice.
# (§2) In order to characterize the effect of the peptides on VEGF binding to endothelial and melanoma cells, the cells were incubated with various peptides (720 μg/ml) in the presence of […] (12 ng/ml) (FIG. 3). Peptide #237 increased VEGF binding to endothelial as well to melanoma cells. 10000 cells were incubated in binding buffer containing 20 mM Hepes, 0.1% BSA and I^125-VEGF (12 ng/ml) for 3 h on ice. Following 3 washings, the radioactive levels were determined by gamma counter. An increase of more than 25 times in I^125-VEGF binding was observed when peptide #237 was added to both kinds of cells. All other peptides had no effect on VEGF binding.
# (§3) To characterize which are the essential amino acids within the #237 peptide that are crucial to accelerate VEGF binding to the cells, three shorter peptides were designed as presented at Table 2. The cells were treated with the smaller peptides in the same way as described in FIG. 3. 10000 cells were incubated in binding buffer containing 20 mM Hepes, 0.1% BSA, I^125-VEGF (12 ng/ml) and 100 μg/ml of each peptide, for 3 h on ice. Following 3 washings with binding buffer, the radioactive levels were determined using a gamma counter.
# The inventors also investigated which amino acid residues in peptide #237 are important for the various angiogenic and VEGF related binding activity described herein. To achieve this, the inventors singly changed each of the 12 amino acid residues in peptide #237 to alanine and performed experiments examining the effect of the alanine substitution at various positions on endothelial cell binding to VEGF. A total of 12 alanine substituted peptides were made and tested: Ala-1, Ala-2, Ala-3, Ala-4, Ala-5, Ala-6, Ala-7, Ala-8, Ala-9, Ala-10, Ala-11, Ala-12, (SEQ. ID. NOS. 39-50) wherein the number indicate the position where the alanine substitution occurred. (Note that the amino acid at position 12 of peptide #237 was changed to glycine in Ala-12). In addition, a “flip #237” peptide having the sequence AAVVTTTQRQVRD (SEQ. ID. NO. 53) was also made and studied.
# [3] = test system: B16-F10 melanoma cells; experiment: I125-VEGF binding to melanoma cells in presence of peptide; type: cell-based; conditions: I125-VEGF 12 ng/ml, 3 h on ice
# Description: as §1, §2, §3
# [4] = test system: mouse corneas; experiment: Corneal micropocket assay with VEGF pellet; type: in vivo; conditions: pellet 160 ng VEGF 165 + 1.3 ug #237 vs VEGF pellet alone, 5 days
# Description: Vigorous vessel in-growth from the limbus at 5 days was recorded as a positive response.
# In order to evaluate the modulating effect of peptide #237 on the angiogenesis process, a corneal micropocket assay was performed. Two kinds of pellets were created, both containing 160 ng carrier-free recombinant human VEGF 165 (R&D Systems, Minneapolis, Minn.), one of which contains 1.3 ug of #237 peptide. The pellets were implanted into micropockets created in the cornea of two groups of anesthetized mice (n=4). Through the use of standardized slow-release pellets, a predictable angiogenic response is generated over the course of 5 days and then quantified. The area of neovascularization was calculated as vessel area, which is calculated as the product of vessel length measured from the limbus and clock hours around the cornea, using the following equation: vessel area (mm^2)=[clock hours×vessel length (mm)×0.2 mm]. […] The in vivo experiment confirms that the peptide stimulates cell proliferation, and is therefore a good candidate to induce angiogenesis.
# [5] = test system: calvaria critical size defect; experiment: Calvaria critical size defect bone repair experiment; type: in vivo, rat; conditions: local treatment 28 days, 100 μg/mice/5 days, 5-mm defect, vs saline
# Description: In this study, the inventors examined the ability of peptide #237 to enhance repair of a critical size defect in a rat calvaria critical size defect experiment. Critical size calvarial defects (5-mm diameter) were created in rats and locally treated with saline (control) or peptide #237 for 28 days (100 μg/mice/5 days). After 28 days, analysis of bone regeneration was determined by soft x-ray.
# [6] = test system: nude mouse ear wound; experiment: Ear wound neovascularization model; type: in vivo; conditions: matrigel containing #237 (180 μg) daily for 5 days, 2.25 mm punch, vs plain matrigel
# Description: Microvascular in-growth into damaged tissue is an essential component of the normal healing process. In fact, wound therapy is often aimed at promoting neovascularization. The model consists of wounding the dorsal aspect of the ear of a nude mouse. A circular punch was used to create a standardized wound on a nude mouse ear. Constant diameter of wound is given by the size of the punch (2.25 mm), and the ears were treated daily with plain matrigel (FIG. 8A) or matrigel containing peptide #237 (180 μg) (FIG. 8B) for 5 days. […] In order to evaluate the wound neovascularization, the mice were inoculated by dextran-FITC which specifically labeled the endothelial cells, immediately after anesthetizing them.
# [7] = test system: mouse ear wound; experiment: Mouse ear punch wound healing model, 14 days; type: in vivo; conditions: MATRIGEL containing #237 daily, day 14, vs MATRIGEL
# Description: In addition to increasing angiogenesis, peptide #237 also accelerates wound healing. In order to evaluate the effect of the peptide on wound healing, ears of five mice were wounded using a circular punch, which creates a wound measuring 1 mm. The ears of wounded mice were treated daily with either MATRIGEL or MATRIGEL containing #237 peptide for 14 days.
# [8] = test system: ischemic hind limb; experiment: Mouse hind limb ischemia model (femoral artery ligation, laser Doppler); type: in vivo
# Description: Mice were ligated in one of their femoral arteries (the right limb) to simulate hind limb ischemia. The blood flow in mice was analyzed by machine for each mouse before and immediately after the procedure to evaluate if the femoral was ligated properly. Blood flow was compared with the non-operated leg by a laser Doppler imager. […] The ischemic limb is seen as the limb on left side in the laser Doppler images.
# In FIG. 12, the white areas indicate normal perfusion with normal blood circulation and black areas indicate no blood flow in the ischemic left hind limb. […] Dark shaded areas within the white areas located at the distal ends of the limbs indicate extremely good blood flow.
# The blood flow of the ischemic hind limb is expressed as the ratio between the perfusion of the ischemic limb and the uninjured limb in FIG. 13.
# [9] = test system: Primary cortical neuronal cells; experiment: Neurite outgrowth in primary cortical neuronal cells; type: cell-based; conditions: 0.25 μg/μL, 2 days, compared to scrambled peptide
# Description: Primary cortical neuronal cells (2×10^4 per well) were plated on poly-L-lysine coated 24 well dishes and treated with either scrambled #237 or peptide #237 (0.25 μg/μL). Cells were then cultured for 2 days.
# Neurite outgrowth was evaluated by counting the number of neurites extended from the same number of cells and at the same area.
# Peptide 237 increases neurite outgrowth in terminally differentiated cortical neurons. The number of neurite arborizations in these postmitotic cells was estimated using light microscopy by manually counting the number of projections in a given field containing approximately equivalent number of cells. Quantification of neurite outgrowth was also performed by fluorescent staining with a neuron-specific marker (i.e., neurofilament) followed by automated, computational analysis (data not shown).
substance,measurement,setting,value
VEGF [reference compound],"endothelial cells among matrigel liberated cells (FACS, CD31)",[1],0.07%
TTTVVA [#237B],VEGF binding to cells (endothelial cells) with #237 fragments,"[2]; I125-VEGF 12 ng/ml, 3 h on ice",partially increases; also recorded: partial increase
same,VEGF binding to melanoma cells with #237 fragments,[3]; 100 μg/ml of each peptide,better binding
VQRQTTTV [#237C],VEGF binding to cells (endothelial cells) with #237 fragments,"[2]; I125-VEGF 12 ng/ml, 3 h on ice",abolished; also recorded: essentially eliminated
DRVQRQ [#237A],VEGF binding to cells (endothelial cells) with #237 fragments,"[2]; I125-VEGF 12 ng/ml, 3 h on ice",abolished; also recorded: not crucial to enhance VEGF binding
DRVQRQTTTVVA [Peptide #237],increase in I125-VEGF binding to endothelial cells,"[2]; peptide 720 μg/ml, I125-VEGF 12 ng/ml, 10000 cells, 3 h on ice",more than 25 times
same,increase in vessel density versus control pellet,[4],53%
same,bone regeneration (soft x-ray),[5],completely sealed and covered the aperture
same,neovascularization around the ear wound site,[6],significantly increased
same,wound area,[7],significantly smaller
same,increase in I125-VEGF binding to melanoma cells,"[3]; peptide 720 μg/ml, 10000 cells",more than 25 times
same,limb perfusion,"[8]; intraperitoneal immediately following femoral artery occlusion, within three to six days",significantly improves limb perfusion
same,increase perfusion compared to saline-treated mice,"[8]; ratio ischemic/uninjured limb, on average",30-40%
same,neurite outgrowth,[9],dramatically induces branched and longer neurites
same,endothelial cells relative to VEGF alone,"[1]; 180 ug #237 added to VEGF in Matrigel, day 6",six times more
same,"endothelial cells among matrigel liberated cells (FACS, CD31)",[1],0.42%
Ala-5: peptide #237 with the arginine at position 5 replaced by alanine (DRVQAQTTTVVA),"ability of endothelial cells to bind VEGF, alanine substituted #237 peptides",[2]; compared to the original #237,increased by more than twice

# Reference: patent US8618055B2, “Prominin-1 peptide fragments and uses thereof” (Children's Medical Center Corporation, priority 2008, dated 2013)
